Assay results: PubChem BioAssay AID192 (DTP/NCI, 2004)
Values joined by “and” are separate entries in the source; they are usually repeats but may differ in a detail not shown here. Equal entries are not always repeated. Inconclusive results and toxic doses are left out.

System: BDF1 mice, B16 melanoma ip, median survival T/C
Assay: NCI In Vivo Anticancer Drug Screen. Data for tumor model B16 Melanoma (intraperitoneal) in B6D2F1 (BDF1) mice
Conditions: endpoint: median survival time, higher = longer survival
Procedure, shortened: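 The ratio T/C compares compound-treated mice with vehicle-treated controls, using survival or tumor size as the endpoint in a transplantable tumor model.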

[1] = dose: 100.0 mg/kg/injection, schedule: Q04DX003 (ip), vehicle: Klucel (hydroxypropylcellulose) (HPC)
[2] = dose: 200.0 mg/kg/injection, schedule: Q04DX003 (ip), vehicle: Klucel (hydroxypropylcellulose) (HPC)
[3] = dose: 400.0 mg/kg/injection, schedule: Q04DX003 (ip), vehicle: Klucel (hydroxypropylcellulose) (HPC)
[4] = dose: 100.0 mg/kg/injection, schedule: Q01DX009 (ip), vehicle: Klucel (hydroxypropylcellulose) (HPC)
[5] = dose: 200.0 mg/kg/injection, schedule: Q01DX009 (ip), vehicle: Klucel (hydroxypropylcellulose) (HPC)
[6] = dose: 400.0 mg/kg/injection, schedule: Q01DX009 (ip), vehicle: Klucel (hydroxypropylcellulose) (HPC)
[7] = dose: 25.0 mg/kg/injection, schedule: Q01DX009 (ip), vehicle: saline with Tween-80
[8] = dose: 50.0 mg/kg/injection, schedule: Q01DX009 (ip), vehicle: saline with Tween-80
[9] = dose: 25.0 mg/kg/injection, schedule: Q01DX009 (ip), vehicle: Klucel (hydroxypropylcellulose) (HPC)
[10] = dose: 50.0 mg/kg/injection, schedule: Q01DX009 (ip), vehicle: Klucel (hydroxypropylcellulose) (HPC)
[11] = dose: 100.0 mg/kg/injection, schedule: Q01DX009 (ip), vehicle: saline with Tween-80
[12] = dose: 0.5 mg/kg/injection, schedule: Q01DX009 (ip), vehicle: saline

For Nc1nc(Nc2ccccc2)nc(C(=O)O)n1, the T/C [1] was 100 % of control, the T/C [2] was 97 % of control and the T/C [3] was 92 % of control.
In the case of Nc1ccc(S(=O)(=O)Nc2cccc3ccccc23)cc1, the T/C [4] was 100 % of control, the T/C [5] was 100 % of control and the T/C [6] was 96 % of control.
With C1CCN(CCC2CCCCN2)CC1 (configuration not stated) the T/C (dose: 25.0 mg/kg/injection, schedule: Q01DX009 (ip), vehicle: saline) was 106 % of control and the T/C (dose: 50.0 mg/kg/injection, schedule: Q01DX009 (ip), vehicle: saline) was 100 % of control.
C[CH2][Pb]([CH2]C)([CH2]C)[O]C(=O)c1ccccc1 was tested, and the T/C (dose: 0.75 mg/kg/injection, schedule: Q01DX009 (ip), vehicle: Klucel (hydroxypropylcellulose) (HPC)) was 93 % of control and the T/C (dose: 1.5 mg/kg/injection, schedule: Q01DX009 (ip), vehicle: Klucel (hydroxypropylcellulose) (HPC)) was 90 % of control.
For O=c1[nH]c(=O)n(C2OC(CO)C(O)C2O)cc1F (configuration not stated), the T/C (dose: 0.78 mg/kg/injection, schedule: Q01DX009 (ip), vehicle: saline) was 156 % of control, the T/C (dose: 1.56 mg/kg/injection, schedule: Q01DX009 (ip), vehicle: saline) was 165 % of control and the T/C (dose: 3.12 mg/kg/injection, schedule: Q01DX009 (ip), vehicle: saline) was 165 % of control.
In the case of O=C(Cl)COc1cccc2ccccc12, the T/C [4] was 103 % of control, the T/C [5] was 110 % of control and the T/C [6] was 106 % of control.
With CC1=CC(=NN=c2cc(C)n([O-])c(C)c2)C=C(C)[N+]1=O the T/C (dose: 12.5 mg/kg/injection, schedule: Q01DX009 (ip), vehicle: saline with Tween-80) was 111 % of control, the T/C [7] was 115 % of control and the T/C [8] was 118 % of control.
O=[N+]([O-])c1ccc2[nH]c(=S)sc2c1 was tested, and the T/C [9] was 97 % of control and the T/C [10] was 100 % of control.
Cc1c(O)ccc(=O)n1O was tested, and the T/C (dose: 40.0 mg/kg/injection, schedule: Q01DX009 (ip), vehicle: saline with Tween-80) was 97 % of control, the T/C (dose: 80.0 mg/kg/injection, schedule: Q01DX009 (ip), vehicle: saline with Tween-80) was 101 % of control and 102 % of control and 111 % of control and the T/C (dose: 160.0 mg/kg/injection, schedule: Q01DX009 (ip), vehicle: saline with Tween-80) was 94 % of control (2×) and 111 % of control. The T/C (dose: 320.0 mg/kg/injection, schedule: Q01DX009 (ip), vehicle: saline with Tween-80) was 97 % of control.
O=C1C(N2CCOCC2)=C(N2CC2)C(=O)C(N2CCOCC2)=C1N1CC1 was tested, and the T/C (dose: 0.75 mg/kg/injection, schedule: Q01DX009 (ip), vehicle: saline) was 118 % of control, the T/C (dose: 1.5 mg/kg/injection, schedule: Q01DX009 (ip), vehicle: saline) was 124 % of control and the T/C (dose: 3.0 mg/kg/injection, schedule: Q01DX009 (ip), vehicle: saline) was 120 % of control. For the same compound, the T/C (dose: 6.0 mg/kg/injection, schedule: Q01DX009 (ip), vehicle: saline) was 106 % of control.
For Cc1cccc(C)c1NC(=O)Nc1cccc2ccccc12, the T/C (dose: 100.0 mg/kg/injection, schedule: Q01DX009 (ip), vehicle: gum acacia) was 117 % of control, the T/C (dose: 200.0 mg/kg/injection, schedule: Q01DX009 (ip), vehicle: gum acacia) was 109 % of control and the T/C (dose: 400.0 mg/kg/injection, schedule: Q01DX009 (ip), vehicle: gum acacia) was 100 % of control.
With OCC1OC(O)C(O)C(O)C1O (configuration not stated) the T/C (dose: 500.0 mg/kg/injection, schedule: Q01DX009 (ip), vehicle: saline) was 98 % of control, the T/C (dose: 1000.0 mg/kg/injection, schedule: Q01DX009 (ip), vehicle: saline) was 93 % of control and the T/C (dose: 2000.0 mg/kg/injection, schedule: Q01DX009 (ip), vehicle: saline) was 103 % of control. For the same compound, the T/C (dose: 4000.0 mg/kg/injection, schedule: Q01DX009 (ip), vehicle: saline) was 97 % of control.
In the case of Cc1cc(C)cc(OC(=O)/C=C/C(=O)Oc2cc(C)cc(C)c2)c1, the T/C [7] was 98 % of control, the T/C [8] was 87 % of control and the T/C [11] was 93 % of control.
Nc1ccc(N=Nc2ccc(S(=O)(=O)O)cc2)cc1 was tested, and the T/C [7] was 93 % of control, the T/C [8] was 97 % of control and the T/C [11] was 90 % of control and 104 % of control.
Cc1cc(Cl)ccc1NC(=O)c1ccc(Cl)cc1Cl was tested, and the T/C [1] was 100 % of control, the T/C [2] was 97 % of control and the T/C [3] was 97 % of control.
CCN(CC)CCCC(C)NCCCCNC(C)CCCN(CC)CC (configuration not stated) was tested, and the T/C (dose: 4.69 mg/kg/injection, schedule: Q01DX009 (ip), vehicle: alcohol) was 96 % of control, the T/C (dose: 6.25 mg/kg/injection, schedule: Q01DX009 (ip), vehicle: alcohol) was 115 % of control and the T/C (dose: 9.38 mg/kg/injection, schedule: Q01DX009 (ip), vehicle: alcohol) was 104 % of control. The T/C (dose: 11.0 mg/kg/injection, schedule: Q01DX009 (ip), vehicle: water) was 122 % of control, the T/C (dose: 12.5 mg/kg/injection, schedule: Q01DX009 (ip), vehicle: alcohol) was 88 % of control and the T/C (dose: 16.5 mg/kg/injection, schedule: Q01DX009 (ip), vehicle: water) was 94 % of control. The T/C (dose: 25.0 mg/kg/injection, schedule: Q01DX009 (ip), vehicle: water) was 87 % of control and 224 % of control.
CS(=O)(=O)OCc1c(O)c2c(c(O)c1COS(C)(=O)=O)C(=O)C=CC2=O was tested, and the T/C (dose: 6.25 mg/kg/injection, schedule: Q01DX009 (ip), vehicle: Klucel (hydroxypropylcellulose) (HPC)) was 111 % of control, the T/C (dose: 12.5 mg/kg/injection, schedule: Q01DX009 (ip), vehicle: Klucel (hydroxypropylcellulose) (HPC)) was 106 % of control and the T/C [9] was 102 % of control. The T/C [10] was 97 % of control.
With CC(C)CNN(CC(C)C)C(N)=O the T/C [11] was 111 % of control and the T/C (dose: 200.0 mg/kg/injection, schedule: Q01DX009 (ip), vehicle: saline with Tween-80) was 86 % of control.
With C[CH2][Ge]1([CH2]C)[CH2]CC2(CCN(CCCN(C)C)C2)C[CH2]1 the T/C (dose: 8.0 mg/kg/injection, schedule: Q02DX009 (ip), vehicle: saline) was 102 % of control, the T/C (dose: 16.0 mg/kg/injection, schedule: Q02DX009 (ip), vehicle: saline) was 106 % of control and the T/C (dose: 32.0 mg/kg/injection, schedule: Q02DX009 (ip), vehicle: saline) was 102 % of control.
For COc1cc(NC(N)=O)ccc1Nc1c2ccc(N)cc2nc2cc(N)ccc12, the T/C [12] was 104 % of control, the T/C (dose: 1.0 mg/kg/injection, schedule: Q01DX009 (ip), vehicle: saline) was 102 % of control and the T/C (dose: 2.0 mg/kg/injection, schedule: Q01DX009 (ip), vehicle: saline) was 108 % of control. The T/C (dose: 4.0 mg/kg/injection, schedule: Q01DX009 (ip), vehicle: saline) was 102 % of control, the T/C (dose: 8.0 mg/kg/injection, schedule: Q01DX009 (ip), vehicle: saline) was 102 % of control and the T/C (dose: 16.0 mg/kg/injection, schedule: Q01DX009 (ip), vehicle: saline) was 104 % of control.
With Cc1cc(CN)c(C)cc1CN the T/C (dose: 44.0 mg/kg/injection, schedule: Q01DX009 (ip), vehicle: saline) was 91 % of control.
For CCN(CC)CCCCNc1ccc(NCCCCN(CC)CC)c2c1C(=O)c1ccccc1C2=O, the T/C [7] was 105 % of control and the T/C [8] was 99 % of control.
Cc1cccc(C2=NCCN2)c1C was tested, and the T/C (dose: 5.0 mg/kg/injection, schedule: Q04DX003 (ip), vehicle: saline with Tween-80) was 116 % of control and the T/C (dose: 20.0 mg/kg/injection, schedule: Q04DX003 (ip), vehicle: saline with Tween-80) was 116 % of control.
With CC[C@@H]1O[C@@H]([C@@H]2CC[C@](O)([C@]3(C)CC[C@@H]([C@@H](C)[C@@]4(O)CC[C@H](C)[C@@H](C[C@@]5(O)O[C@@H]([C@@H](C)[C@H](O)C[C@H]6CC[C@H](C)[C@@H]([C@@H](C)C(=O)O)O6)CC[C@@H]5C)O4)O3)O2)CC[C@@]1(C)O the T/C (dose: 0.12 mg/kg/injection, schedule: Q01DX009 (ip), vehicle: saline) was 91 % of control, the T/C (dose: 0.25 mg/kg/injection, schedule: Q01DX009 (ip), vehicle: saline) was 89 % of control and the T/C [12] was 96 % of control.
In the case of O=C(CC(=O)CC(O)(C(F)(F)F)C(F)(F)F)CC(O)(C(F)(F)F)C(F)(F)F, the T/C (dose: 0.05 mg/kg/injection, schedule: Q01DX009 (ip), vehicle: saline) was 93 % of control, the T/C (dose: 0.1 mg/kg/injection, schedule: Q01DX009 (ip), vehicle: saline) was 95 % of control and the T/C (dose: 0.2 mg/kg/injection, schedule: Q01DX009 (ip), vehicle: saline) was 95 % of control. For the same compound, the T/C (dose: 0.63 mg/kg/injection, schedule: Q04DX003 (ip), vehicle: saline) was 116 % of control, the T/C (dose: 1.25 mg/kg/injection, schedule: Q04DX003 (ip), vehicle: saline) was 111 % of control and the T/C (dose: 2.5 mg/kg/injection, schedule: Q04DX003 (ip), vehicle: saline) was 105 % of control. For the same compound, the T/C (dose: 125.0 micrograms/kg/injection, schedule: Q01DX009 (ip), vehicle: saline with Tween-80) was 97 % of control.
